# Measured values from patent publication EP4205733B1, “COMPOSITION FOR THE TREATMENT OF OSTEOPENIA AND OSTEOPOROSIS” (MIVELL S.R.L.S., priority 2021, dated 2023).
# Legend:
# IL-1β = test: RTqPCR of mRNA levels of inflammatory cytokine IL-1β; type: cell-based, human; conditions: senescent BM-MSCs, 48h, vs untreated senescent BM-MSCs
# Procedure: (§1) The experiments were conducted on mesenchymal stromal cells obtained from the bone marrow of a donor: BM-MSCs (Promocell). BM-MSCs were cultured in medium maintenance MSC-GM2 (PromoCell) with the addition of Supplement Mix and Penicillin-Streptomycin 1%, in humid atmosphere at 37°C, with 5% CO2. The proliferative capacity of this cell model was evaluated and characterized and the cellular senescence was assessed using p16, p21 expression and beta-galactosidase activity (data not shown). […]
# (§2) The anti-inflammatory activity of the individual ingredients and the synergy between them have been assessed by the measurement of mRNA levels of the cytokines involved in inflammatory processes: IL-1β, IL-6, IL-8 and MCP-1 [Lencel et al., 2011; Mulholland et al., 2019]. […]
# (§3) The pro-osteogenic activity of the individual components (pro-mineralizing and anti-inflammatory) and their combination was firstly determined through the analysis of the modulation of the mRNA levels of the osteogenic marker COL1α1 in young BM-MSCs cells. […] Furthermore, the pro-mineralizing and anti-inflammatory activity of the individual components and their combination was determined through the analysis of the modulation of the mRNA levels of the osteogenic marker ALP and of the pro-inflammatory markers IL-1β and MCP-1 in senescent BM-MSCs cells. […]
# MCP-1 = test: RTqPCR of mRNA levels of inflammatory cytokine MCP-1; type: cell-based, human; conditions: senescent BM-MSCs, 48h, vs untreated senescent BM-MSCs
# Procedure: as §1, §2, §3
# Solubility test = type: physicochemical
# Description: Before proceeding with the cellular assays, the two ingredients have been tested for their solubility in several solvents, with the aim of identifying the best solubilizing agent (Table 2).
SMILES,IL-1β mRNA levels (IL-1β),MCP-1 mRNA levels (MCP-1),Solubility test results: Organic solvents (Solubility test; organic solvents),Solubility test results: Cremophor (Solubility test; solvent Cremophor),Solubility test results: DMSO (Solubility test; solvent DMSO),Solubility test results: PBS (Solubility test; solvent PBS)
OC[C@H]1O[C@@H](Oc2cc(O)cc(/C=C/c3ccc(O)cc3)c2)[C@H](O)[C@@H](O)[C@@H]1O [polydatin],significantly decrease,significantly decrease,–,–,–,–
"CC(C)=CCC/C(C)=C/CC/C(C)=C/CC/C(C)=C/CC/C(C)=C/CC/C(C)=C/CC/C(C)=C/CC1=C(C)C(=O)c2ccccc2C1=O [Vitamin K2, Menaquinone-7]",–,–,Not soluble,Soluble,Not soluble,Not soluble
